Test results taken from publication PMC8618441, “From Natural Xanthones to Synthetic C-1 Aminated 3,4-Dioxygenated Xanthones as Optimized Antifouling Agents” (Marine Drugs, 2021).
In brackets after ≈: the same amount, converted by molar mass. Read-outs that look alike come from different tables or passages of the source.

Legend:
[1] = tested on: Mytilus galloprovincialis plantigrade larvae; experiment: Toxicity (LC50, therapeutic ratio) toward mussel plantigrade larvae; assay type: in vivo
Method: (§1) For the bioassays, M. galloprovincialis juveniles were collected in intertidal mussel beds during low tides in Memória beach, Matosinhos, Portugal (41°13′59″ N; 8°43′28″ W). Mussel plantigrade larvae (0.5–2 mm) were sorted in a binocular magnifier (Olympus SZX2-ILLT, Tokyo, Japan) and those presenting foot exploring behavior for settlement were selected to the screening bioassays at 50 µM performed in 24-well microplates for 15 h, in the dark at 18 ± 1 °C, according to Almeida et al.. Four well replicates per condition and five competent larvae per well were included. Negative and positive controls were included, namely DMSO (0.1%) and CuSO4 (5 µM) as an efficient antifouling agent. Stock solutions in DMSO (50 mM) were used to prepare test media (50 µM) in filtered seawater (0.1% DMSO). After the exposure period, the anti-settlement bioactivity was determined by the observation of efficiently attached plantigrade larvae considering the existence/absence of produced byssal threads for each test condition.
(§2) Data from the anti-settlement screening were analyzed using a one-way analysis of variance (ANOVA), followed by a Dunnett test against the negative control (p < 0.05). […] Therapeutic ratios (LC50/EC50) were used to evaluate the effectiveness versus toxicity of bioactive compounds. […] The mixed model ANOVA was performed on log10(x + 1)-transformed values from 4 biological replicates, employing the software IBM SPSS Statistics (version 21, SPSS Inc., Chicago, IL, USA).

[2] = as above; assay type: in vivo; conditions: Mytilus galloprovincialis, in vivo, median lethal dose, mussel plantigrades
Method: as §1, §2

Artemia salina nauplii [3] = experiment: Brine shrimp (Artemia salina) lethality test, ecotoxicity; assay type: in vivo; conditions: 48 h; for toxicity to A. salina: lowest concentration tested, 25 μM; for mortality of Artemia salina nauplii: at 50 µM
Method: Ecotoxicity of the most promising xanthones to non-target species was assessed using the brine shrimp (Artemia salina) lethality test standard protocol. Newly hatched nauplii I larvae were used for the exposure to the most promising antifouling compounds at 50 and 25 µM. The bioassay was performed in 96-well microplates with eight replicates per condition and 15–20 nauplii per well, including a positive (K2Cr2O7 at 13.6 µM) and negative control (0.1% DMSO). The percentage of nauplii mortality for each condition was determined at the end of the exposure period (48 h).

[4] = tested on: Mytilus galloprovincialis plantigrade larvae; experiment: Mytilus galloprovincialis larvae anti-settlement bioassay; assay type: in vivo; conditions: for anti-settlement response versus negative control: screening at 50 μM, Dunnett test p < 0.05; for settlement of mussel larvae: at 50 µM
Method: as §1, §2

[5] = tested on: Mytilus galloprovincialis plantigrade larvae; conditions: cited from earlier work
Artemia salina nauplii [6] = conditions: cited from earlier work
[7] = tested on: Mytilus galloprovincialis plantigrade larvae; conditions: cited from earlier work; remark: listed apart in the source
[8] = tested on: Balanus amphitrite larvae; conditions: cited from earlier work; for EC50, larval settlement of Balanus amphitrite / toxicity effects on the barnacle larvae: in vivo
Escherichia coli = tested on: Escherichia coli; set-up: method as in PMID 23172582; conditions: in words; cited from earlier work
[9] = tested on: brine shrimp (Artemia salina); set-up: method as in PMID 23172582; conditions: in words; cited from earlier work
[10] = tested on: Colletotrichum lagenarium; set-up: method as in PMID 23172582; conditions: in words; cited from earlier work
Staphylococcus aureus = tested on: Staphylococcus aureus; set-up: method as in PMID 23172582; conditions: in words; cited from earlier work
[11] = tested on: Roseobacter litoralis CECT 5395; experiment: Biofilm-forming marine bacteria growth bioassay; assay type: cell-based; conditions: for inhibition at 12.5 µM: Roseobacter litoralis, read-out: growth inhibition of R. litoralis
Method: The experimental procedure was performed as previously reported by Almeida et al.. […] Bacterial growth inhibition in the presence of the compounds was determined in quadruplicate at 600 nm using a microplate reader (Biotek Synergy HT, Winooski, VT, USA). Negative and positive controls used were a solution of marine broth with 0.1% DMSO, and a stabilized solution of marine broth with penicillin-streptomycin-neomycin, respectively.

[12] = Mytilus galloprovincialis, 15 h
[13] = Mytilus galloprovincialis, 15 h, read-out: EC50 (μg.mL^−1)
[14] = larval settlement of mussel plantigrades
[15] = other: larvae immersed in test media in filtered seawater
[16] = Mytilus galloprovincialis, 15 h, concentration that inhibited 50% of larval settlement of mussel plantigrades, 15 h exposure, read-out: EC50
[17] = Mytilus galloprovincialis, 15 h, concentration that inhibited 50% of larval settlement of mussel plantigrades, 15 h exposure, read-out: EC50 (μg.mL^−1)

With COc1cc(C)c2c(=O)c3ccccc3oc2c1OC [Compound 1, 3,4-dimethoxy-1-methyl-9H-xanthen-9-one] the “toxicity to the macrofouling species (mussel larvae)” value (shortened to “toxicity to the macrofouling species”) ([1]; in words) was “low toxicity”, the LC50 at 15 h [2] was > 100 µM and the “toxicity to A. salina” value (Artemia salina nauplii [3]) was “significant toxicity”. The EC50 [4, 12] was 11.8 µM, the EC50 [4, 13] was 3.19 µg/mL and the “anti-settlement response versus negative control” value [4] was “highly significant anti-settlement responses”.
In the case of N#Cc1c(-c2ccc(Cl)cc2)[nH]c(C(F)(F)F)c1Br [ECONEA], the LC50 ([5]; median lethal dose, mussel plantigrades) is given as 108 µM, the “mortality of Artemia salina” value (Artemia salina nauplii [6]; at the same concentration range (25-50 µM)) is given as 100% and the EC50 [7, 14] is given as 4.01 µM. The “EC50 (μg.mL^−1)” value [7, 14] was 1.40 µg/mL (≈ 4.01 µM).
For COC(=O)c1cc(O)cc2oc3c(Cl)c(C)c(Cl)c(O)c3c(=O)c12 [penicilixanthone], the “EC50, larval settlement of B. amphitrite” value [8] is listed as 17.1 µg/mL.
In the case of COc1cc(CN2CCc3c(N)cccc3C2)c2c(=O)c3ccccc3oc2c1OC [Compound 21, 1-((5-amino-3,4-dihydroisoquinolin-2(1H)-yl)methyl)-3,4-dimethoxy-9H-xanthen-9-one], the “toxicity to the macrofouling species” value ([1]; in vivo) is reported as “low toxicity”, the LC50 at 15 h [2, 15] is reported as > 100 µM and the “mortality of Artemia salina nauplii” value (Artemia salina nauplii [3]) is reported as < 10%. For the same compound, the EC50 [4, 16] was 7.28 µM, the EC50 [4, 17] was 3.03 µg/mL and the “settlement of mussel larvae” value ([4]; 15 h) was 20%. For the same compound, the “anti-settlement response versus negative control” value [4] was “highly significant anti-settlement responses”.
For COC(=O)c1cc(OC)c2c(=O)c3c(O)cc(C)cc3oc2c1 [yicathin B], the “antimicrobial activity against Escherichia coli” value (Escherichia coli) is given as “active” and the “brine shrimp (Artemia salina) toxicity” value [9] is given as “weak”.
For COc1ccc2c(=O)c3c(CCl)cc(OC)c(OC)c3oc2c1 [Compound 4, 1-(chloromethyl)-3,4,6-trimethoxy-9H-xanthen-9-one], the “toxicity to the macrofouling species” value ([1]; in vivo) was “low toxicity”, the LC50 at 15 h [2, 15] was > 100 µM and the “mortality of Artemia salina nauplii” value (Artemia salina nauplii [3]) was < 10%. For the same compound, the EC50 [4, 16] was 16.1 µM, the EC50 [4, 17] was 5.41 µg/mL and the “settlement of mussel larvae” value ([4]; 15 h) was 20%. The “anti-settlement response versus negative control” value [4] was “highly significant anti-settlement responses”.
For COc1cc(CN2CCCCC2)c2c(=O)c3ccccc3oc2c1OC [Compound 23, 3,4-dimethoxy-1-(piperidin-1-ylmethyl)-9H-xanthen-9-one], the “toxicity to the macrofouling species” value ([1]; in vivo) was “low toxicity”, the LC50 at 15 h [2, 15] was > 100 µM and the “mortality of Artemia salina nauplii” value (Artemia salina nauplii [3]) was < 10%. For the same compound, the EC50 [4, 16] was ~4 µM, the EC50 [4, 17] was 1.26 µg/mL and the “settlement of mussel larvae” value ([4]; 15 h) was 20%. For the same compound, the EC50 ([4]; concentration that inhibited 50% of larval settlement of mussel plantigrades, 15 h exposure, read-out: EC50) was 3.57 µM and the “anti-settlement response versus negative control” value [4] was “highly significant anti-settlement responses”.
In the case of COc1cc(C(=O)O)cc2oc3cc(C)cc(O)c3c(=O)c12 [yicathin C], the “antimicrobial activity against Escherichia coli” value (Escherichia coli) is given as “could inhibit”, the “brine shrimp (Artemia salina) toxicity” value [9] is given as “weak” and the “antimicrobial activity against Colletotrichum lagenarium” value [10] is given as “could inhibit”. For the same compound, the “antimicrobial activity against Staphylococcus aureus” value (Staphylococcus aureus) was “could inhibit”.
For COc1cc(CNCCN2CCOCC2)c2c(=O)c3ccccc3oc2c1OC [Compound 16, 3,4-dimethoxy-1-(((2-morpholinoethyl)amino)methyl)-9H-xanthen-9-one], the “antibacterial bioactivity in concentration–response study” value ([11]; R. litoralis, concentrations between 2 and 32 µM (Figure S1)) was “not confirmed”, the inhibition at 12.5 µM ([11]; CECT5395, screening at 12.5 µM, 24 h) was > 30% and the “toxicity to the macrofouling species” value ([1]; in vivo) was “low toxicity”. The LC50 at 15 h [2, 15] was > 100 µM, the “mortality of Artemia salina nauplii” value (Artemia salina nauplii [3]) was < 10% and the EC50 [4, 16] was 17.5 µM. The EC50 [4, 17] was 6.98 µg/mL, the “settlement of mussel larvae” value ([4]; 15 h) was 0% and the “anti-settlement response versus negative control” value [4] was “highly significant anti-settlement responses”.
In the case of COc1ccc2c(=O)c3c(C)c(Cl)c(OC)c(OC)c3oc2c1 [Compound 3, 2-chloro-3,4,6-trimethoxy-1-methyl-9H-xanthen-9-one], the “anti-settlement response versus negative control” value [4] is reported as “nullified the significant anti-settlement effect”.
For COc1cc2c(c3oc4cccc(O)c4c(=O)c13)[C@@H]1C=CO[C@@H]1O2 [sterigmatocystin], the “EC50, larval settlement of Balanus amphitrite” value [8] is given as < 0.125 µg/mL and the “toxicity effects on the barnacle larvae” value [8] is given as “induced paralyzing effects”.
In the case of COc1ccc2c(=O)c3c(CBr)cc(OC)c(OC)c3oc2c1 [Compound 5, 1-(bromomethyl)-3,4,6-trimethoxy-9H-xanthen-9-one], the “settlement of mussel larvae” value ([4]; 15 h) is reported as 45%.
With COc1cc(C(Br)Br)c2c(=O)c3ccccc3oc2c1OC [Compound 6, 1-(dibromomethyl)-3,4-dimethoxy-9H-xanthen-9-one] the inhibition at 12.5 µM ([11]; CECT5395, 24 h) was > 30%, the “toxicity to the macrofouling species” value ([1]; in words) was “low toxicity” and the LC50 at 15 h [2] was > 100 µM. The “mortality of Artemia salina nauplii” value (Artemia salina nauplii [3]) was < 10%, the EC50 [4, 12] was 22.8 µM and the EC50 [4, 13] was 9.75 µg/mL. For the same compound, the “anti-settlement response versus negative control” value [4] was “highly significant anti-settlement responses”.
For COc1cc(CO)c2c(=O)c3ccccc3oc2c1OC [Compound 8, 1-(hydroxymethyl)-3,4-dimethoxy-9H-xanthen-9-one], the “toxicity to the macrofouling species” value ([1]; in vivo) was “low toxicity”, the LC50 at 15 h [2, 15] was > 100 µM and the “mortality of Artemia salina nauplii” value (Artemia salina nauplii [3]) was < 10%. For the same compound, the EC50 [4, 16] was 21.8 µM, the EC50 [4, 17] was 6.25 µg/mL and the “settlement of mussel larvae” value ([4]; 15 h) was 35%. The “anti-settlement response versus negative control” value [4] was “highly significant anti-settlement responses”.
For COc1cc2c(c3c(=O)c4c(OC)ccc(O)c4oc13)[C@@H]1C=CO[C@@H]1O2 [methoxysterigmatocystin], the “EC50, larval settlement of Balanus amphitrite” value [8] is given as < 0.125 µg/mL and the “toxicity effects on the barnacle larvae” value [8] is given as “induced paralyzing effects”.
In the case of O=c1c2ccccc2oc2c(O)c(O)ccc12 [3,4-Dihydroxyxanthone], the “toxicity to the macrofouling species” value ([5]; in words) is given as “low toxicity”, the “ecotoxicity toward A. salina, mortality” value (Artemia salina nauplii [6]) is given as < 10% and the “activity toward the settlement of Mytilus galloprovincialis larvae” value ([7]; in words) is given as “exhibited in vivo activity”.
In the case of COc1ccc2c(=O)c3c(C)cc(OC)c(OC)c3oc2c1 [Compound 2, 3,4,6-trimethoxy-1-methyl-9H-xanthen-9-one], the “toxicity to the macrofouling species” value ([1]; in words) is reported as “low toxicity”, the LC50 at 15 h [2] is reported as > 100 µM and the “toxicity to A. salina” value (Artemia salina nauplii [3]) is reported as “significant toxicity”. For the same compound, the EC50 [4, 12] was 27.2 µM, the EC50 [4, 13] was 8.15 µg/mL and the “anti-settlement response versus negative control” value [4] was “highly significant anti-settlement responses”.
For COc1cc(CN2CCN(CCO)CC2)c2c(=O)c3ccccc3oc2c1OC [Compound 19, 1-((4-(2-hydroxyethyl)piperazin-1-yl)methyl)-3,4-dimethoxy-9H-xanthen-9-one], the “toxicity to the macrofouling species” value ([1]; in vivo) was “low toxicity”, the LC50 at 15 h [2, 15] was > 100 µM and the “mortality of Artemia salina nauplii” value (Artemia salina nauplii [3]) was < 10%. The EC50 [4, 16] was 53.9 µM, the EC50 [4, 17] was 21.5 µg/mL and the “settlement of mussel larvae” value ([4]; 15 h) was 10%. For the same compound, the “anti-settlement response versus negative control” value [4] was “highly significant anti-settlement responses”.
